{
  "source": "the supplement of paper PMC12463676",
  "about": "“Small-molecule dissolution of stress granules by redox modulation benefits ALS models” (Nature Chemical Biology, 2025);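 further: each temperature applied for 3 min, abundance score taken as mean log2 fold change at the two lowest temperatures, z-score obtained by mean subtraction and division by SD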",
  "data": [
    {"compound": "NC(=O)CCCCC1CCSS1 [lipoamide]", "test": "thermal stability z-score vs DMSO; higher = more thermally stabilized by treatment", "details": "HeLa; lipoamide concentration 100 µM; arsenate co-treatment: 1 mM arsenate 1 h", "method": "(§1)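 Cellular thermal proteome profiling in HeLa cells. Cells were treated with 100 µM lipoamide for 1 h, with or without 1 mM arsenate for a further 1 h, then heated to ten temperatures (37-66.3 °C), and soluble protein was quantified by TMT mass spectrometry relative to 0.1% DMSO controls. The thermal stability score (sum of log2 fold changes minus the abundance score) was transformed to a z-score; mean of n = 3 experiments.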", "values": [
      {"target": "AAK1 (UniProt Q2M2I8)", "thermal stability z-score": 0.286},
      {"target": "TIMM13 (UniProt Q9Y5L4)", "thermal stability z-score": 1.99},
      {"target": "PRKRIP1 (UniProt Q9H875)", "thermal stability z-score": 0.524},
      {"target": "NCOR1 (UniProt O75376)", "thermal stability z-score": -0.0471},
      {"target": "KCTD15 (UniProt Q96SI1)", "thermal stability z-score": -0.377},
      {"target": "XPO4 (UniProt Q9C0E2)", "thermal stability z-score": -0.237},
      {"target": "GMDS (UniProt O60547)", "thermal stability z-score": 0.538},
      {"target": "ODC1 (UniProt P11926)", "thermal stability z-score": 0.0303},
      {"target": "SSR4 (UniProt P51571)", "thermal stability z-score": -1.7},
      {"target": "LIG1 (UniProt P18858)", "thermal stability z-score": -0.166},
      {"target": "ZC3H4 (UniProt Q9UPT8)", "sequence (Q9UPT8 whole entry)": "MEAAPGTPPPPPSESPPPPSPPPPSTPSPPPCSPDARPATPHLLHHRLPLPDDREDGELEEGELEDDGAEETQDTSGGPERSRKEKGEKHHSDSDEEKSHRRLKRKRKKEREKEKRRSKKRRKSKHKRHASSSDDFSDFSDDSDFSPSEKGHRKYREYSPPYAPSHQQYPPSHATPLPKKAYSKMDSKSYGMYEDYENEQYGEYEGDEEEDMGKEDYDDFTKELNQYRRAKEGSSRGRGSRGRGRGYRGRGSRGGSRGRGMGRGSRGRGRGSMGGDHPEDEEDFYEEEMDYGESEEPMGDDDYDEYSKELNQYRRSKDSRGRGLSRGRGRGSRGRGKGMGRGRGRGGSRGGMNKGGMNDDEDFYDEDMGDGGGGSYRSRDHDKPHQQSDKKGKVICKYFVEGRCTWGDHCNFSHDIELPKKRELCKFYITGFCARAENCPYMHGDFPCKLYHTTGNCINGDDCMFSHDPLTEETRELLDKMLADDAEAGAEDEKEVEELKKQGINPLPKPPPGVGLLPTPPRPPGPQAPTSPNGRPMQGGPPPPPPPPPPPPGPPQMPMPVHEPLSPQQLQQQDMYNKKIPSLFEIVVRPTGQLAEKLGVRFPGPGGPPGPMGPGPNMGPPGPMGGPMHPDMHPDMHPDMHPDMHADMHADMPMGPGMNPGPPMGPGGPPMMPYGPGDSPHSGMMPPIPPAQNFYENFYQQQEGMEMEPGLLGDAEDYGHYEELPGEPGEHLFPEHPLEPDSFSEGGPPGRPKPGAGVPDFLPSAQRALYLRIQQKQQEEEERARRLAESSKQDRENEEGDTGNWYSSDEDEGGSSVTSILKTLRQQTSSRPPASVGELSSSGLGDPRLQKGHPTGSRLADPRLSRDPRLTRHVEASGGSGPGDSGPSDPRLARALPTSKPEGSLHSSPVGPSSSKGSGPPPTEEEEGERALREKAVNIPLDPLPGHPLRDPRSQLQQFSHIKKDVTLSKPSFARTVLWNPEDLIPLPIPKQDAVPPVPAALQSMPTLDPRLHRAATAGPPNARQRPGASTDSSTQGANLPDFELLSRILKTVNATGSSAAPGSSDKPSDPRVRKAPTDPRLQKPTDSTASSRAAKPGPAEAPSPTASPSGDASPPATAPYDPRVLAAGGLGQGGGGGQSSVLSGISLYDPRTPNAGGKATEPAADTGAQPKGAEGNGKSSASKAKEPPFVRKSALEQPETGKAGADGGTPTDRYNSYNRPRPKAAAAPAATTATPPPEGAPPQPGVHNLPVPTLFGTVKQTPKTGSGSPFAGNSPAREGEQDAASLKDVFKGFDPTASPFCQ", "thermal stability z-score": 0.112},
      {"target": "POLR2D (UniProt O15514)", "thermal stability z-score": 1.21},
      {"target": "RASA3 (UniProt Q14644)", "thermal stability z-score": 0.0194},
      {"target": "TCEAL1 (UniProt Q15170)", "sequence (Q15170 whole entry)": "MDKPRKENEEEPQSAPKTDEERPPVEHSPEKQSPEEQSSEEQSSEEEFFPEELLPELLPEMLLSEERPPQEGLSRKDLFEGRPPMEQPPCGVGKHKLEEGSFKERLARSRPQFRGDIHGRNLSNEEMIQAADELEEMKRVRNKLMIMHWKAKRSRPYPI", "thermal stability z-score": 0.347},
      {"target": "ATG16L1 (UniProt Q676U5)", "thermal stability z-score": 0.346},
      {"target": "PUM3 (UniProt Q15397)", "thermal stability z-score": 0.119},
      {"target": "PACSIN2 (UniProt Q9UNF0)", "thermal stability z-score": 0.246},
      {"target": "PDIA4 (UniProt P13667)", "thermal stability z-score": -2.99},
      {"target": "C21ORF59 (UniProt P57076)", "thermal stability z-score": 0.103},
      {"target": "CARNMT1 (UniProt Q8N4J0)", "thermal stability z-score": -0.0735},
      {"target": "EIF4A1 (UniProt P60842)", "sequence (P60842 whole entry)": "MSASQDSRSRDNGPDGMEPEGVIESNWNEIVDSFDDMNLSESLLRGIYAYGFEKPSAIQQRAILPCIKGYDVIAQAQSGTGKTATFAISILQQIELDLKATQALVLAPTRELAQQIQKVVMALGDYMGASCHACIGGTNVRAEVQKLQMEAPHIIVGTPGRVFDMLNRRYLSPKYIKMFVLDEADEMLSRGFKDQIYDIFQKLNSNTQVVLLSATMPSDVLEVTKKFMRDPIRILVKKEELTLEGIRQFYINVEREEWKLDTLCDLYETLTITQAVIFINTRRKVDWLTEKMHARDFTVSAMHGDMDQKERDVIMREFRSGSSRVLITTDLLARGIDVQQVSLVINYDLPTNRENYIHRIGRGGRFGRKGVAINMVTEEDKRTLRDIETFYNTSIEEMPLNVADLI", "thermal stability z-score": 0.413},
      {"target": "OSBP (UniProt P22059)", "sequence (P22059 whole entry)": "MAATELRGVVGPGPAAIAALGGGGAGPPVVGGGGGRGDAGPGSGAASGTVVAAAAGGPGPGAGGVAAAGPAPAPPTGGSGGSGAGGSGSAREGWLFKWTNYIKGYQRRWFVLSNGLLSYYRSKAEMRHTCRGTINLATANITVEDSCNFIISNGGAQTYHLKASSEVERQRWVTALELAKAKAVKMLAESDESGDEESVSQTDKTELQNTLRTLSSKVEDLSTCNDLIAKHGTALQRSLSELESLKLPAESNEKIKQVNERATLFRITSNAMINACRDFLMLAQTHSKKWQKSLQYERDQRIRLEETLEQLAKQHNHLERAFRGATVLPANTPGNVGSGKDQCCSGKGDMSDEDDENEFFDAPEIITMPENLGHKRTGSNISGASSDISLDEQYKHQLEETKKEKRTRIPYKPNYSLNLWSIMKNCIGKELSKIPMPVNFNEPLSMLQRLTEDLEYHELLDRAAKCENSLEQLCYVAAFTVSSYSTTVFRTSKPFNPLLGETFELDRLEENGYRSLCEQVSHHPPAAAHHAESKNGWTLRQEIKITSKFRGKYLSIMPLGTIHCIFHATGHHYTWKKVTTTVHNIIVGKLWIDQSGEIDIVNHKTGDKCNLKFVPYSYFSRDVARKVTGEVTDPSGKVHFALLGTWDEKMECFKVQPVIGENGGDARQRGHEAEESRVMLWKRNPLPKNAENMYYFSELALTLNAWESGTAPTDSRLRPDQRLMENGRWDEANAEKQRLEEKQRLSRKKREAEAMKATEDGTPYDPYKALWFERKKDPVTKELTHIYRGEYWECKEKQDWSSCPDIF", "thermal stability z-score": 0.983},
      {"target": "ABHD16A (UniProt O95870)", "thermal stability z-score": -0.193},
      {"target": "PSMA6 (UniProt P60900)", "sequence (P60900 whole entry)": "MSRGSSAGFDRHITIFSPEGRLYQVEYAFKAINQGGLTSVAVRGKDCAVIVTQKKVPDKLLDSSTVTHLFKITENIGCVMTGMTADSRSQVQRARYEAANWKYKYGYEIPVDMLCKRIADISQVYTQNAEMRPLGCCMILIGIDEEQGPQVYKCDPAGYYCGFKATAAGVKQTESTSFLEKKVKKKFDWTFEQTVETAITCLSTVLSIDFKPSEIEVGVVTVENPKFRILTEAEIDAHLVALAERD", "thermal stability z-score": 0.746},
      {"target": "HMGCS1 (UniProt Q01581)", "thermal stability z-score": 1.34},
      {"target": "ETNK1 (UniProt Q9HBU6)", "thermal stability z-score": 0.392},
      {"target": "SNRNP70 (UniProt P08621)", "sequence (P08621 whole entry)": "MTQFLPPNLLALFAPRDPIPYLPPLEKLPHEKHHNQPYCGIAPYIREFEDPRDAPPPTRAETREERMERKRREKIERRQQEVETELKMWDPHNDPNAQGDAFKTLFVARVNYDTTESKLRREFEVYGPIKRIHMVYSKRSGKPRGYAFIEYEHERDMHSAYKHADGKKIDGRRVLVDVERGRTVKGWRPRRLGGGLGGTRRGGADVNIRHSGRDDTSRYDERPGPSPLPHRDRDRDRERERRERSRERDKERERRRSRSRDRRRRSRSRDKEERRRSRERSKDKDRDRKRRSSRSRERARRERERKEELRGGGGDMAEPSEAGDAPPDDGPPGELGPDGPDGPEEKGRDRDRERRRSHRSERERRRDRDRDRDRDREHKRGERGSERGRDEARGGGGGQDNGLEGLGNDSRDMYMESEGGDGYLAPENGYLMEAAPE", "thermal stability z-score": -0.195},
      {"target": "ALG8 (UniProt Q9BVK2)", "thermal stability z-score": 0.425},
      {"target": "CASP8 (UniProt Q14790)", "thermal stability z-score": -2.33},
      {"target": "CPSF2 (UniProt Q9P2I0)", "sequence (Q9P2I0 whole entry)": "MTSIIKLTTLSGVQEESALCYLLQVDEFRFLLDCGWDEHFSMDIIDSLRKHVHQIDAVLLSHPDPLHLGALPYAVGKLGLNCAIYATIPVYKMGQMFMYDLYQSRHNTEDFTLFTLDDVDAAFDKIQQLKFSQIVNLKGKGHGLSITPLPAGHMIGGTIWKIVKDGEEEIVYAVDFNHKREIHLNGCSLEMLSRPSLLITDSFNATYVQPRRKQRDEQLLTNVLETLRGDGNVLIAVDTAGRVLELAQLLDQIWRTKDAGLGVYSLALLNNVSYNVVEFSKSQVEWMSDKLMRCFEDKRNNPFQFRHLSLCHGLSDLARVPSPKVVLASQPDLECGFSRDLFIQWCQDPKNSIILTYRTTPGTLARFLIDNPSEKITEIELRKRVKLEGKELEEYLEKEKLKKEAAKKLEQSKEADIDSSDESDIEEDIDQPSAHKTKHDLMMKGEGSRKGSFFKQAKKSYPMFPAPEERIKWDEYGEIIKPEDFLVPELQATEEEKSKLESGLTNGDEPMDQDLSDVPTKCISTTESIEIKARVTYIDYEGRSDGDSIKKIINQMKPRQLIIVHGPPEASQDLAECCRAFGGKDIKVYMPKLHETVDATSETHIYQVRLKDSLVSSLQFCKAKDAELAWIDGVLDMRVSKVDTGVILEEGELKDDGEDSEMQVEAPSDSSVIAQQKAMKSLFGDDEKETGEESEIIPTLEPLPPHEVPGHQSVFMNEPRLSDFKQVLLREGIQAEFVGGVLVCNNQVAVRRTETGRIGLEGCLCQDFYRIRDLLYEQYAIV", "thermal stability z-score": -0.00974},
      {"target": "ZSWIM8 (UniProt A7E2V4)", "thermal stability z-score": 0.028},
      {"target": "SDF4 (UniProt Q9BRK5)", "sequence (Q9BRK5 whole entry)": "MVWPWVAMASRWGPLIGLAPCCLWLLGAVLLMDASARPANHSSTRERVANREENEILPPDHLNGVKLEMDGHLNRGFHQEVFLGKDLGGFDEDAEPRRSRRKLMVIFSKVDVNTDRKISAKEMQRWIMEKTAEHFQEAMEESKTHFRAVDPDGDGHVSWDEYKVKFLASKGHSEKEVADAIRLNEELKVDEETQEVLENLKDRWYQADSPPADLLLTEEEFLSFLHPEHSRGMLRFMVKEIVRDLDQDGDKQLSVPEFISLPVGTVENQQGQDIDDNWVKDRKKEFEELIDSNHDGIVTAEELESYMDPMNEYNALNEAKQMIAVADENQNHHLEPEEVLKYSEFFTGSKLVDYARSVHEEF", "thermal stability z-score": -1.8},
      {"target": "TSPAN6 (UniProt O43657)", "thermal stability z-score": 0.216},
      {"target": "CDC20 (UniProt Q12834)", "sequence (Q12834 whole entry)": "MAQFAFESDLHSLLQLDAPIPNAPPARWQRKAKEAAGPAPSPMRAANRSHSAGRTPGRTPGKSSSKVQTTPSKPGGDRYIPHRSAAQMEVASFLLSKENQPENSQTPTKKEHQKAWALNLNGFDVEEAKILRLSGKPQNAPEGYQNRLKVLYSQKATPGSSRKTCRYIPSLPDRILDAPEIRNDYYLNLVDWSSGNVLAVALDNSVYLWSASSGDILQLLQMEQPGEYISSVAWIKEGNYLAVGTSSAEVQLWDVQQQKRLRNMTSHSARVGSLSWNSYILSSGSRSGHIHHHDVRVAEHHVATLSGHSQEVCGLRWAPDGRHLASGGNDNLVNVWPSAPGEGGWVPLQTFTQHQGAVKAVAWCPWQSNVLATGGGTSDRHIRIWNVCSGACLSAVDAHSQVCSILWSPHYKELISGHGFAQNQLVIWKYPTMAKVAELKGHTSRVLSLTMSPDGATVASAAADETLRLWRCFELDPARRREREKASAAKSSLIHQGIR", "thermal stability z-score": -0.124},
      {"target": "PSMC2 (UniProt P35998)", "thermal stability z-score": -0.293},
      {"target": "PHACTR2 (UniProt O75167)", "thermal stability z-score": 0.56},
      {"target": "VWA5A (UniProt O00534)", "thermal stability z-score": -0.245},
      {"target": "FRMD8 (UniProt Q9BZ67)", "thermal stability z-score": 0.263},
      {"target": "DCAF11 (UniProt Q8TEB1)", "thermal stability z-score": 0.101},
      {"target": "AAAS (UniProt Q9NRG9)", "thermal stability z-score": -0.373},
      {"target": "PRKACA (UniProt P17612)", "thermal stability z-score": 0.104},
      {"target": "PMVK (UniProt Q15126)", "thermal stability z-score": -0.641},
      {"target": "IQGAP2 (UniProt Q13576)", "thermal stability z-score": -0.121},
      {"target": "NOMO2 (UniProt Q5JPE7)", "thermal stability z-score": -3.91},
      {"target": "CAP1 (UniProt Q01518)", "thermal stability z-score": 0.524},
      {"target": "COMMD2 (UniProt Q86X83)", "thermal stability z-score": 0.00791},
      {"target": "EIF5B (UniProt O60841)", "thermal stability z-score": -0.519},
      {"target": "CDK1 (UniProt P06493)", "thermal stability z-score": 0.163},
      {"target": "WARS2 (UniProt Q9UGM6)", "thermal stability z-score": -0.731},
      {"target": "APMAP (UniProt Q9HDC9)", "thermal stability z-score": 1.33},
      {"target": "RHPN2 (UniProt Q8IUC4)", "thermal stability z-score": -0.97},
      {"target": "RAB35 (UniProt Q15286)", "thermal stability z-score": -0.564},
      {"target": "SLC25A4 (UniProt P12235)", "thermal stability z-score": -0.0513},
      {"target": "EIF4H (UniProt Q15056)", "thermal stability z-score": 0.493},
      {"target": "MARS2 (UniProt Q96GW9)", "thermal stability z-score": 0.482},
      {"target": "EXOSC10 (UniProt Q01780)", "thermal stability z-score": 0.0236},
      {"target": "APLP2 (UniProt Q06481)", "thermal stability z-score": -2.13},
      {"target": "DCTD (UniProt P32321)", "thermal stability z-score": 0.038},
      {"target": "ACTR5 (UniProt Q9H9F9)", "thermal stability z-score": -0.0353},
      {"target": "CHCHD3 (UniProt Q9NX63)", "thermal stability z-score": 0.334},
      {"target": "CTU1 (UniProt Q7Z7A3)", "thermal stability z-score": -0.119},
      {"target": "MICA (UniProt Q29983)", "thermal stability z-score": -1.72},
      {"target": "PHB (UniProt P35232)", "thermal stability z-score": 0.394},
      {"target": "CFAP20 (UniProt Q9Y6A4)", "thermal stability z-score": 0.686},
      {"target": "CERS2 (UniProt Q96G23)", "thermal stability z-score": -0.901},
      {"target": "CLIC3 (UniProt O95833)", "thermal stability z-score": 0.00456},
      {"target": "MAP3K2 (UniProt Q9Y2U5)", "thermal stability z-score": 0.15},
      {"target": "DOCK9 (UniProt Q9BZ29)", "thermal stability z-score": -0.191},
      {"target": "ANKRD44 (UniProt Q8N8A2)", "thermal stability z-score": -0.00602},
      {"target": "EMG1 (UniProt Q92979)", "thermal stability z-score": -0.357},
      {"target": "RPL23A (UniProt P62750)", "thermal stability z-score": -0.321}
    ]},
    {"compound": "NC(=O)CCCCC1CCSS1 [lipoamide]", "test": "thermal stability z-score vs DMSO; higher = more thermally stabilized by treatment", "details": "HeLa; lipoamide concentration 100 µM; arsenate co-treatment: none", "method": "as §1", "values": [
      {"target": "AAK1 (UniProt Q2M2I8)", "thermal stability z-score": 0.0193},
      {"target": "TIMM13 (UniProt Q9Y5L4)", "thermal stability z-score": 1.56},
      {"target": "PRKRIP1 (UniProt Q9H875)", "thermal stability z-score": 0.599},
      {"target": "NCOR1 (UniProt O75376)", "thermal stability z-score": -0.0243},
      {"target": "KCTD15 (UniProt Q96SI1)", "thermal stability z-score": -0.174},
      {"target": "XPO4 (UniProt Q9C0E2)", "thermal stability z-score": -0.0735},
      {"target": "GMDS (UniProt O60547)", "thermal stability z-score": 0.00997},
      {"target": "ODC1 (UniProt P11926)", "thermal stability z-score": 0.354},
      {"target": "SSR4 (UniProt P51571)", "thermal stability z-score": -1.43},
      {"target": "LIG1 (UniProt P18858)", "thermal stability z-score": 0.00122},
      {"target": "ZC3H4 (UniProt Q9UPT8)", "thermal stability z-score": -0.278},
      {"target": "POLR2D (UniProt O15514)", "thermal stability z-score": 0.628},
      {"target": "RASA3 (UniProt Q14644)", "thermal stability z-score": 0.0519},
      {"target": "TCEAL1 (UniProt Q15170)", "thermal stability z-score": 0.809},
      {"target": "ATG16L1 (UniProt Q676U5)", "thermal stability z-score": 0.282},
      {"target": "PUM3 (UniProt Q15397)", "thermal stability z-score": -0.0918},
      {"target": "PACSIN2 (UniProt Q9UNF0)", "thermal stability z-score": 0.134},
      {"target": "PDIA4 (UniProt P13667)", "thermal stability z-score": -2.13},
      {"target": "C21ORF59 (UniProt P57076)", "thermal stability z-score": 0.1},
      {"target": "CARNMT1 (UniProt Q8N4J0)", "thermal stability z-score": -0.179},
      {"target": "EIF4A1 (UniProt P60842)", "thermal stability z-score": 0.201},
      {"target": "OSBP (UniProt P22059)", "thermal stability z-score": 0.414},
      {"target": "ABHD16A (UniProt O95870)", "thermal stability z-score": -0.0821},
      {"target": "PSMA6 (UniProt P60900)", "thermal stability z-score": 0.795},
      {"target": "HMGCS1 (UniProt Q01581)", "thermal stability z-score": 0.0808},
      {"target": "ETNK1 (UniProt Q9HBU6)", "thermal stability z-score": 1.06},
      {"target": "SNRNP70 (UniProt P08621)", "thermal stability z-score": -0.247},
      {"target": "ALG8 (UniProt Q9BVK2)", "thermal stability z-score": -0.262},
      {"target": "CASP8 (UniProt Q14790)", "thermal stability z-score": -0.106},
      {"target": "CPSF2 (UniProt Q9P2I0)", "thermal stability z-score": -0.136},
      {"target": "ZSWIM8 (UniProt A7E2V4)", "thermal stability z-score": 0.0796},
      {"target": "SDF4 (UniProt Q9BRK5)", "thermal stability z-score": -1.61},
      {"target": "TSPAN6 (UniProt O43657)", "thermal stability z-score": 0.486},
      {"target": "CDC20 (UniProt Q12834)", "thermal stability z-score": -0.245},
      {"target": "PSMC2 (UniProt P35998)", "thermal stability z-score": -0.165}
    ]}
  ]
}
